# BindingDB's records for doi:10.1021/jm020072w (University of California, 2002)
# Target: juvenile hormone esterase (Trichoplusia ni)
# Assay: In vitro inhibition of Trichoplusia Juvenile Hormone Esterase.
row,Compound,IC50 [µM]
1,CCCCCC[Se](=O)CC(=O)C(F)(F)F (configuration not stated),0.000537
2,CCCCCCCCC(=O)C(F)(F)F,6.76
3,CCCCCCC=CC(=O)C(F)(F)F,79.4
4,CCCCCCOCC(C)=O,490

# Continued, values first:
row,IC50 [µM],Compound
1,0.398,CCCCCCC#CC(=O)C(F)(F)F
2,10,CCCCCCCCC(=O)C(F)F
3,0.0832,CCCCCCOCC(=O)C(F)(F)F
